Assay in all cases: growth of human tumour cells (NCI), 48 h
The subject of assay [1] is RXF 631.
The subject of assay [2] is HOP-18.
Assay [3] relates to DMS-114.
The subject of assay [4] is DLD-1.
For assay [5], the system named is MDA-N.
Assay [6] deals with BT-549.
The test system of assay [7] is M19-MEL.
Assay [8] concerns KM-20L2.

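Cells were grown in 96-well plates and exposed to each compound for 48 hours at five concentrations; endpoints were interpolated linearly between bracketing concentrations, or set to the highest concentration if not reached. Abbreviation: GI50, concentration required for 50% inhibition of growth.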 The source made the active and inactive calls. Cut-off read from the data, not from the text of the source: active = GI50 up to about 1.1 µM and inactive = higher.

As for `CN1NC(c2ccccc2)=C(C#N)C(=O)CC1c1ccc(F)cc1` (centres undefined), the GI50 in assay [1], in assay [2], in assay [3] and in assay [4] was > 100 µM (inactive) in each case.
With `N#CCCC1C(C#N)C2(Cl)CC1(Cl)C(Cl)=C2Cl` (centres undefined), the GI50 in assay [5] was > 10 µM (inactive).
Take `COC(C/C=C\C=C\CC/C=C/CC(C)/C=C/C(=C\C(=O)O)CC(=O)O)/C(C)=C\C=C(/C)C(=O)O` (centres undefined): the GI50 in assay [5] and in assay [6] was > 100 µM (inactive) in each case.
For `Cc1ccc(/N=N/NCCCCN/N=N/c2ccc(C)cc2)cc1`, the GI50 in assay [5] is 16.5 µM (inactive); in assay [6], > 100 µM (inactive).
On the same counts, the results for `Cc1cn(C2CC(O)C(Cn3nncc3Cn3ncc(=O)[nH]c3=O)O2)c(=O)[nH]c1=O` (centres undefined) are > 100 µM (inactive) and > 100 µM (inactive).
`CC[N+]1(C)CCC(O)(c2ccc(Cl)cc2)C(C(=O)c2ccc(Cl)cc2)C1` (centres undefined): the GI50 in assay [5] is 19.1 µM (inactive).
`CCCCOC(=O)CN1C(=O)c2ccccc2C1=O`: the GI50 in assay [7], in assay [8] and in assay [4] was > 100 µM (inactive) each time.
On to `CCC1=NC(C(F)(F)F)(C(F)(F)F)N=C(N2CCOCC2)O1`, for which the GI50 in assay [5] is > 100 µM (inactive).
`CC1(C)CCc2cc3c(-c4ccccc4)cc(=O)oc3cc2O1`: the GI50 in assay [7] was > 100 µM (inactive); in assay [1], > 100 µM (inactive); in assay [8], > 100 µM (inactive); in assay [2] it was 47.8 µM (inactive); in assay [3], > 100 µM (inactive); in assay [4] it was > 100 µM (inactive).
As to `COC(c1ccc(C(C)(C)C)cc1)(c1ccc(C(C)(C)C)cc1)c1cc(C(O)(c2cc(C(OC)(c3ccc(C(C)(C)C)cc3)c3ccc(C(C)(C)C)cc3)c(C)cc2C)c2cc(C(OC)(c3ccc(C(C)(C)C)cc3)c3ccc(C(C)(C)C)cc3)c(C)cc2C)c(C)cc1C`, the GI50 in assay [5] and in assay [6] was > 100 µM (inactive) each time.
Consider `CCOC(=O)c1csc(NC(=O)CN(C)C)n1`, for which, in assay [5], the GI50 is > 100 µM (inactive).
As to `O=c1n(CC2CO2)c2ccccc2n1CC1CS1` (centres undefined), the GI50 in assay [7] was > 100 µM (inactive); in assay [8] it was > 100 µM (inactive); in assay [3] it was 77.8 µM (inactive).
As for `Cc1ccc(Cl)cc1/N=N/C(=O)NNc1cc(Cl)ccc1C`, the GI50 in assay [5] is 31.8 µM (inactive); in assay [6] it was 18.2 µM (inactive).
As for `O=c1c2ccccc2[nH]c2cc(O)cc(O)c12`, the GI50 is 39.1 µM (inactive) in assay [7] and > 100 µM (inactive) in assay [2].
As to `CCOc1ccc(C(C)c2cc3c(cc2OC)OCO3)cc1` (centres undefined), the GI50 was 0.199 µM (active) in assay [8], 2.2 µM (inactive) in assay [2], 0.214 µM (active) in assay [3] and 0.377 µM (active) in assay [4].
`C=C(C)C1CC2=C(O1)C(=O)c1ccccc1C2=O` (stereo not drawn) [DEHYDROISO-ALPHA-LAPACHONE]: the results for the GI50 in assay [1], in assay [3] and in assay [4] were 20.3 µM (inactive), 16 µM (inactive) and 20.8 µM (inactive), respectively.

(Values after ChEMBL document CHEMBL1201862, “PubChem BioAssay data set” (2004).)
